Results published in patent US20250214967A1, “FAK DEGRADERS, PHARMACEUTICAL COMPOSITIONS, AND THERAPEUTIC APPLICATIONS” (Berrybio (Shanghai) Limited, priority 2022, published 2025).

Biological target: FAK (Homo sapiens (Human), UniProt Q05397)
Assay: FAK Degradation Assay (Western blot, FAK/GAPDH)
Assay type: cell-based
Details: MDA-MB-231 cells, 24 h treatment, Western blot normalized to DMSO; for DC50: read-out: DC50 (half-maximal degradation concentration), FAK Degradation; for Dmax: read-out: Dmax (maximal degradation), FAK Degradation
Procedure: H2122 (4×10^5), MIA PaCa-2 (6×10s), or MDA-MB-231 cells (6×10^5) per well were seeded into a 6-well plate containing 2 mL of complete culture medium (RPMI-1640 for H2122 and MDA-MB-231, and DMEM/F12 for MIA PaCa-2, supplemented with 10% FBS and 1% penicillin/streptomycin). The cells were cultured overnight at 37° C. in the presence of 5% C02 before treated with a compound in a series of concentrations for 24 h. The cells were then washed with ice-cold Dulbecco's phosphate-buffered saline (DPBS). A radioimmuno-precipitation assay (RIPA) buffer was added to lyse the cells on ice for 20 min. The cells were then scrapped using cell scraper and collected in a 1.5 mL tube, which was centrifuged at 14,000 g and 4° C. for 15 min. The supernatant was collected and the total protein concentration of each sample was determined using a PIERCE™ BCA protein assay kit. The supernatant was diluted to the same protein concentration with the RIPA buffer after the BCA assay. Samples of the same protein amount were mixed with 4× a lithium dodecyl sulfate (LDS) sample buffer and boiled at 95° C. for 5 min. The denatured samples were used for electrophoresis.
For Western blot, the same volume containing ˜50 μg protein for each sample was loaded onto 4-12% Bis-Tris protein gel. The gel was run at 80 V for 0.5 h and at 120 V for 1 h. When the electrophoresis was completed, an IBLOT™ 2 gel transfer device was used to transfer FAK and GAPDH proteins at 20 V for 7 min. All the membranes were blocked in 5% nonfat dry milk in a TBST buffer at RT for 1 h and then incubated with primary antibodies (anti-FAK and anti-GAPDH) in a TBST buffer containing 5% BSA at 4° C. overnight. The membranes were washed with the TBST buffer and then incubated with secondary antibodies (goat anti-rabbit IgG H&L for FAK and goat anti-mouse IgG H&L for GAPDH) at room temperature for 1 h. Blots were visualized using an IMAGEQUANT™ LAS-4000. The chemiluminescent signals from ECL™ Western blotting reagents were captured. The band integrated intensity from each 16-bit blot image was used for quantitation. The FAK/GAPDH signal ratios of each sample were normalized using DMSO as a control and the normalized data for each compound were used to obtain its half-maximal degradation concentration (DC50) and maximal degradation (Dmax).

Sequence of FAK (Q05397 whole entry): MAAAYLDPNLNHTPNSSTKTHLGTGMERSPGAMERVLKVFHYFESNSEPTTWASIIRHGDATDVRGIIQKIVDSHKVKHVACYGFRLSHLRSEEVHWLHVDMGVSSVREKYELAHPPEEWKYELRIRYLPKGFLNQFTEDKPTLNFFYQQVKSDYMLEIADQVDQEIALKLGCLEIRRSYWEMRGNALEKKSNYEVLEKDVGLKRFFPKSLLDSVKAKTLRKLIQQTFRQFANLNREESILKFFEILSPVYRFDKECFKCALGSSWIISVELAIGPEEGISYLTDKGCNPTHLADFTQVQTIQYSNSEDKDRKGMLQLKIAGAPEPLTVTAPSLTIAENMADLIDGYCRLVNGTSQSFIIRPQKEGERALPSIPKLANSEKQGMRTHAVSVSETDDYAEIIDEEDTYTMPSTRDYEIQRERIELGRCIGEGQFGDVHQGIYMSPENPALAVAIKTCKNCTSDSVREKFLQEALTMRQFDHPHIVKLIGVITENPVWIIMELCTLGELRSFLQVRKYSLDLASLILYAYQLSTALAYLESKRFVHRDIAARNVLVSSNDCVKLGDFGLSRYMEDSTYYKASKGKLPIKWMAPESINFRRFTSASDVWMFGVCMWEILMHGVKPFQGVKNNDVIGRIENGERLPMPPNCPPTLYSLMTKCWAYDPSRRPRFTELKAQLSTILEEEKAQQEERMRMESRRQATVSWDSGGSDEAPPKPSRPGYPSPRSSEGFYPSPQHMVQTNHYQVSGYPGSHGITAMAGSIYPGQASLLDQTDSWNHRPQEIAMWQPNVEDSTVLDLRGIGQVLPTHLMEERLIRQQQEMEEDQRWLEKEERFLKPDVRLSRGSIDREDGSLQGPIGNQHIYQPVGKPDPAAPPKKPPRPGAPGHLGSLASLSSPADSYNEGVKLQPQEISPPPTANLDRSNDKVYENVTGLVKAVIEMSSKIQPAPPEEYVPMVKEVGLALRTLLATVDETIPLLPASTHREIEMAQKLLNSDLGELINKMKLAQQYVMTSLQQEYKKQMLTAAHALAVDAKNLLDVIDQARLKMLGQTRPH

DC50 [nM]	Dmax [%]	Compound
25	83	CS(=O)(=O)c1ccccc1Nc1cc(Nc2ccc(CNC3CCN(c4ccc5c(c4)C(=O)N(C4CCC(=O)NC4=O)C5=O)CC3)cc2)ncc1C(F)(F)F (stereo not shown) [Compound A34, 2-(2,6-Dioxopiperidin-3-yl)-5-(4-((4-((4-((2-(methylsulfonyl)phenyl)amino)-5-(trifluoromethyl)pyridin-2-yl)amino)benzyl)amino)piperidin-1-yl)isoindoline-1,3-dione]
1.3	93	CNC(=O)c1ccccc1Nc1cc(Nc2ccc(C(=O)NC3CCN(c4ccc5c(c4)C(=O)N(C4CCC(=O)NC4=O)C5=O)CC3)cc2)ncc1C(F)(F)F (stereo not shown) [Compound A21, 2-((2-((4-((1-(2-(2,6-Dioxopiperidin-3-yl)-1,3-dioxoisoindolin-5-yl)piperidin-4-yl)carbamoyl)phenyl)amino)-5-(trifluoromethyl)pyridin-4-yl)amino)-N-methylbenzamide]
1.3	96	CS(=O)(=O)c1cccc(CNc2nc(Nc3ccc4c(c3)CC(=O)N4CC3CCN(c4ccc5c(c4)C(=O)N(C4CCC(=O)NC4=O)C5=O)CC3)ncc2C(F)(F)F)c1 (stereo not shown) [Compound A23, 2-(2,6-dioxopiperidin-3-yl)-5-(4-((5-((4-((3-(methylsulfonyl)benzyl)amino)-5-(trifluoromethyl)pyrimidin-2-yl)amino)-2-oxoindolin-1-yl)methyl)piperidin-1-yl)isoindoline-1,3-dione]
8.1	95	CN(c1ccccc1CNc1cc(Nc2ccc(CNC3CCN(c4ccc5c(c4)C(=O)N(C4CCC(=O)NC4=O)C5=O)CC3)c(F)c2)ncc1C(F)(F)F)S(C)(=O)=O (stereo not shown) [Compound A35, N-(2-(((2-((4-(((1-(2-(2,6-Dioxopiperidin-3-yl)-1,3-dioxoisoindolin-5-yl)-piperidin-4-yl)amino)methyl)-3-fluorophenyl)amino)-5-(trifluoromethyl)pyridin-4-yl)amino)-methyl)phenyl)-N-methylmethanesulfonamide]
2.7	93	CN(c1cccc(CNc2cc(Nc3ccc(CNC4CCN(c5ccc6c(c5)C(=O)N(C5CCC(=O)NC5=O)C6=O)CC4)cc3)ncc2C(F)(F)F)c1)S(C)(=O)=O (stereo not shown) [Compound A16, N-(3-(((2-((4-(((1-(2-(2,6-Dioxopiperidin-3-yl)-1,3-dioxoisoindolin-5-yl)-piperidin-4-yl)amino)methyl)phenyl)amino)-5-(trifluoromethyl)pyridin-4-yl)amino)methyl)-phenyl)-N-methylmethanesulfonamide]
0.71	89	CNC(=O)c1ccccc1Nc1nc(Nc2ccc(CN[C@@H]3CCN(c4ccc5c(c4)C(=O)N(C4CCC(=O)NC4=O)C5=O)C[C@@H]3F)cc2)ncc1C(F)(F)F (stereo partly drawn) [Compound A39, 2-((2-((4-((((3S,4R)-1-(2-(2,6-Dioxopiperidin-3-yl)-1,3-dioxoisoindolin-5-yl)-3-fluoropiperidin-4-yl)amino)methyl)phenyl)amino)-5-(trifluoromethyl)pyrimidin-4-yl)amino)-N-methylbenzamide]
21	84	CN(c1ccccc1CNc1cc(Nc2ccc(CN3CC(Oc4ccc5c(c4)C(=O)N(C4CCC(=O)NC4=O)C5=O)C3)cc2)ncc1C(F)(F)F)S(C)(=O)=O (stereo not shown) [Compound A18, N-(2-(((2-((4-((3-((2-(2,6-Dioxopiperidin-3-yl)-1,3-dioxoisoindolin-5-yl)oxy)-azetidin-1-yl)methyl)phenyl)amino)-5-(trifluoromethyl)pyridin-4-yl)amino)methyl)phenyl)-N-methylmethanesulfonamide]
0.7	87	CS(=O)(=O)c1cccc(CNc2nc(Nc3ccc(CNC4CCN(c5ccc6c(c5)C(=O)N(C5CCC(=O)NC5=O)C6=O)CC4)cc3)ncc2C(F)(F)F)c1 (stereo not shown) [Compound A24, 2-(2,6-Dioxopiperidin-3-yl)-5-(4-((4-((4-((3-(methylsulfonyl)benzyl)amino)-5-(trifluoromethyl)pyrimidin-2-yl)amino)benzyl)amino)piperidin-1-yl)isoindoline-1,3-dione]
1.3	94	O=C1CCC(N2C(=O)c3ccc(N4CCC(NCc5ccc(Nc6ncc(C(F)(F)F)c(Oc7cccc8c7C(=O)CC8)n6)cc5)CC4)cc3C2=O)C(=O)N1 (stereo not shown) [Compound A27, 2-(2,6-dioxopiperidin-3-yl)-5-(4-((4-((4-((3-oxo-2,3-dihydro-1H-inden-4-yl)oxy)-5-(trifluoromethyl)pyrimidin-2-yl)amino)benzyl)amino)piperidin-1-yl)isoindoline-1,3-dione]
1	86	CN1Cc2cccc(Oc3nc(Nc4ccc(CN[C@@H]5CCN(c6ccc7c(c6)C(=O)N(C6CCC(=O)NC6=O)C7=O)C5)c(F)c4)ncc3C(F)(F)F)c2C1=O (stereo partly drawn) [Compound A57, 2-(2,6-Dioxopiperidin-3-yl)-5-((R)-3-((2-fluoro-4-((4-((2-methyl-3-oxoisoindolin-4-yl)oxy)-5-(trifluoromethyl)pyrimidin-2-yl)amino)benzyl)amino)pyrrolidin-1-yl)isoindoline-1,3-dione]
0.84	88	CNC(=O)c1ccccc1Nc1nc(Nc2ccc3c(c2)CC(=O)N3CC2CCN(c3ccc4c(c3)C(=O)N(C3CCC(=O)NC3=O)C4=O)CC2)ncc1C(F)(F)F (stereo not shown) [Compound A38, 2-((2-((1-((1-(2-(2,6-dioxopiperidin-3-yl)-1,3-dioxoisoindolin-5-yl)piperidin-4-yl)methyl)-2-oxoindolin-5-yl)amino)-5-(trifluoromethyl)pyrimidin-4-yl)amino)-N-methylbenzamide]
0.13	97	CNC(=O)c1ccccc1Nc1nc(Nc2ccc(CNC3CCN(c4ccc5c(c4)C(=O)N(C4CCC(=O)NC4=O)C5=O)CC3)cc2)ncc1C(F)(F)F (stereo not shown) [Compound A25, 2-((2-((4-(((1-(2-(2,6-dioxopiperidin-3-yl)-1,3-dioxoisoindolin-5-yl)piperidin-4-yl)amino)methyl)phenyl)amino)-5-(trifluoromethyl)pyrimidin-4-yl)amino)-N-methylbenzamide]
1.3	96	CN(c1nccnc1CNc1nc(Nc2ccc(CNC3CCN(c4ccc5c(c4)C(=O)N(C4CCC(=O)NC4=O)C5=O)CC3)c(F)c2)ncc1C(F)(F)F)S(C)(=O)=O (stereo not shown) [Compound A30, N-(3-(((2-((4-(((1-(2-(2,6-dioxopiperidin-3-yl)-1,3-dioxoisoindolin-5-yl)piperidin-4-yl)amino)methyl)-3-fluorophenyl)amino)-5-(trifluoromethyl)pyrimidin-4-yl)amino)methyl)-pyrazin-2-yl)-N-methylmethanesulfonamide]
2.8	96	CN(c1ccccc1CNc1cc(Nc2ccc(CNC3CN(c4ccc5c(c4)C(=O)N(C4CCC(=O)NC4=O)C5=O)C3)cc2)ncc1C(F)(F)F)S(C)(=O)=O (stereo not shown) [Compound A19, N-(2-(((2-((4-(((1-(2-(2,6-Dioxopiperidin-3-yl)-1,3-dioxoisoindolin-5-yl)azetidin-3-yl)amino)methyl)phenyl)amino)-5-(trifluoromethyl)pyridin-4-yl)amino)methyl)phenyl)-N-methylmethanesulfonamide]
